Blank lines part the entries; values can stand above or below the compound they belong to.
Key:
[1] = Comparison with prior art formulations: dissolved kinetin or zeatin in GDM-12, Transcutol, isostearic acid and mixtures by HPLC; conditions: for Synergistic Increase in Solubility %: zeatin
Experimental: (§1) Kinetin was combined and mixed in separate beakers containing GDM-12, Transcutol, and Isostearic Acid, and the concentration of dissolved kinetin in each beaker was determined by HPLC. Kinetin was then combined and mixed in separate beakers containing GDM-12 and Transcutol (1:1) and containing GDM-12 and Isostearic acid.
as §1, with “Zeatin” for “Kinetin”, “zeatin” for “kinetin”

[2] = Solubility of kinetin or zeatin when both kinetin and zeatin are dissolved, determined by HPLC
Experimental: (§2) Solubilization of kinetin and zeatin was determined by HPLC.

[3] = distilled water / water; cited from earlier work
[4] = Solubility of kinetin or zeatin alone in GDM-12, GDO-12, isostearic acid and 50:50 mixtures, determined by HPLC; conditions: for calculated solubility: based on independent solubility in each solvent
Experimental: as §2

[5] = solvent GDM-12 + Isostearic Acid
[6] = solvent GDM-12 + Transcutol (1:1)
[7] = 50% GDM-12 and 50% isostearic acid
[8] = 50% GDO-12 and 50% isostearic acid

Kinetin % w/w Experimental ([1]; solvent GDM-12): .164 % w/w | Kinetin % w/w Calculated [1, 5]: .229 % w/w | Kinetin % w/w Experimental [1, 5]: .422 % w/w | Kinetin % w/w Calculated [1, 6]: .281 % w/w | Kinetin % w/w Experimental [1, 6]: .287 % w/w | Kinetin % w/w Experimental ([1]; solvent Isostearic Acid): .299 % w/w | Kinetin % w/w Experimental ([1]; solvent Transcutol): .397 % w/w
SMILES: c1coc(CNc2ncnc3nc[nH]c23)c1 [Kinetin, N^6-furfuryladenine]

calculated solubility ([2]; both kinetin and zeatin combined, 50% GDM-12 and 50% isostearic acid): 0.19 wt % | increase over the calculated solubility ([2]; both kinetin and zeatin dissolved, 50% GDM-12 and 50% isostearic acid): 121% | solubility ([2]; both kinetin and zeatin dissolved, in 50% GDM-12 and 50% isostearic acid): 0.42 % w/w | solubility ([2]; both kinetin and zeatin dissolved, in 100% GDM-12): 0.10 % w/w | solubility ([2]; both kinetin and zeatin dissolved, in 100% isostearic acid): 0.28 % w/w | increase over the calculated solubility [4, 7]: 109% | calculated solubility [4, 7]: 0.21 wt % | increase over the calculated solubility [4, 8]: 100% | calculated solubility [4, 8]: 0.20 wt % | solubility ([4]; in 50% GDM-12 and 50% isostearic acid): 0.44 % w/w | solubility ([4]; in 50% GDO-12 and 50% isostearic acid): 0.40 % w/w | solubility ([4]; in 100% GDM-12 (PEG-12 Glycerol dimyristate)): 0.12 % w/w | solubility ([4]; in 100% GDO-12 (PEG-12 Glycerol dioleate)): 0.10 % w/w | solubility ([4]; in 100% isostearic acid): 0.30 % w/w | Zeatin % w/w Experimental ([1]; solvent GDM-12): .119 % w/w | Zeatin % w/w Calculated [1, 5]: .229 % w/w | Zeatin % w/w Experimental [1, 5]: .440 % w/w | Zeatin % w/w Calculated [1, 6]: .345 % w/w | Zeatin % w/w Experimental [1, 6]: .365 % w/w | Zeatin % w/w Experimental ([1]; solvent Isostearic Acid): .299 % w/w | Zeatin % w/w Experimental ([1]; solvent Transcutol): .570 % w/w | Synergistic Increase in Solubility % [1, 5]: 92% | Synergistic Increase in Solubility % ([1]; solvent GDM-12 + Isostearic Acid, listed as zeatin): 92% | Synergistic Increase in Solubility % [1, 6]: 0% | Synergistic Increase in Solubility % ([1]; solvent GDM-12 + Transcutol (1:1), listed as zeatin): does not provide a synergistic increase
SMILES: C/C(=C\CNc1ncnc2nc[nH]c12)CO [Zeatin, (E)-2-methyl-4-(7H-purin-6-ylamino)but-2-en-1-ol]
solubility in water [3]: practically insoluble

From patent publication US10166235B2, “Kinetin/zeatin topical formulation” (Dow Pharmaceutical Sciences, Inc., priority 2013, dated 2019)
